Legend:
Format in all cases: binding
[1] = molecular target: mouse polyclonal antibody KLH-(31)M for mevalonic acid; assay: Enzyme immunoassay of mevalonic acid, solid phase antigen method, mouse polyclonal antibody KLH-(31)M; conditions: KLH-(31)M diluted 10^5; coated BSA-(12) 0.01 μg/ml; second antibody and blocking (B)
Experimental: (§1) An emulsion of PBS (100 μl) containing each of various antigens for immunization prepared in Example 2 (120 μg as BSA when a BSA-conjugate is used or 120 μg as KLH when a KLH-conjugate is used), and FCA (100 μl) was intraperitoneally administered to a male BALC/c mouse aged eight weeks. After about 2 weeks, the mouse was immunized five times every 2 weeks, by an emulsion of a PBS solution (100 μl) containing of the antigen for immunization and FICA (100 μl), prepared by the same procedure as hereinbefore described. After the second and fifth immunization with the antigen for immunization and FICA, the titer of antibody in blood was measured by the method shown below.
(§2) Anti-mouse IgG antibody labeled with the horse-radish peroxidase (prepared by Vector Co.), which was diluted with 50 mM PB containing 0.1% BSA 10000 times (a solution of the second antibody (B)), and which was diluted with 50 mM PB containing 0.1% OVA 10000 times (a solution of the second antibody (O)). […]
(§3) After the removal of an aqueous layer, a standard solution (100 μl) was added thereto. […] After a stopping solution (50 μl) added thereto, and the absorbance was measured at 450 nm.
(§4) On all mouse polyclonal antibody, standard calibration curves were made by platting B/B0 calculated from the measured absorbance.

[2] = molecular target: mouse polyclonal antibody KLH-(53)M for mevalonic acid; assay: Enzyme immunoassay of mevalonic acid, solid phase antigen method, mouse polyclonal antibody KLH-(53)M; conditions: KLH-(53)M diluted 5 × 10^2; coated BSA-(39) 1 μg/ml; second antibody and blocking (B)
Experimental: as §1, §2, §3, §4

[3] = test system: rabbit polyclonal antibody KLH-(12)R for mevalonic acid; assay: Cross-reaction of rabbit polyclonal antibody with analogues of mevalonic acid (radioimmunoassay, competition with R-[2-14C] mevalonic acid); conditions: for IC50: competition with 400 Bq R-[2-14C] mevalonic acid, overnight at 4° C., polyethylene glycol precipitation
Experimental: After about 4 weeks, the rabbit was sensitized four times for each 2 weeks, by an emulsion of a PBS solution (500 μl) containing of the antigen for immunization prepared by the same procedure as hereinbefore described, and FICA (500 μl).
Blood was collected from the rabbit and to the serum prepared (50 μl) were added successively water (450 μl), 0.5% γ-globulin (80 μl) and a saturated aqueous solution of ammonium sulfate (580 μl), and then the mixture was centrifuged. The precipitation was dissolved into 50 mM PB (200 μl), and 50 mM PB (100 μl) containing R-[2-^14 C] mevalonic acid (400 Bq) was added thereto and the mixture was reacted overnight at 4° C. To the mixture was added successively 0.1M PB (200 μl) containing 0.5% bovine γ-globulin and 30% polyethylene glycol 6000 (register trademark, Wako Pure Chem Ind. Ltd. 600 μl), and then the mixture was centrifuged. Radioactivity of the precipitation was measured. […] This blood serum was called as polyclonal antibody, KLH-(12)R.
To 50 mM PB containing 400 Bq of R-[2-^14 C] mevalonic acid (100 μl) was added successively a solution of antibody (the mixture of the polyclonal antibody KLH-(12)R of the present invention, water, (0.5% γ-globulin and a saturated aqueous solution of ammonium sulfate in the ratio of 0.5:4.5:0.8:5.8 was centrifugalized, and the obtained precipitation was dissolved into a solution of 50 mM PB of four times as much as amount of the used polyclonal antibody, 100 μl) and a standard solution of mevalonic acid analogous compound as indicated following table (a solution of 50 mM PB, 100 μl) in the polystyrene tube, and then the mixture was allowed to stand overnight at 4° C. To the reaction mixture was added a solution of 0.5% γ-globulin (200 μl), and further added 30% polyethylene glycol 6000 (600 μl), and then the mixture was centrifuged. The precipitation was dissolved into 0.1N aqueous solution of sodium hydroxide, and added the liquid of scintillator (1 ml), and measured radioactivity.

[4] = molecular target: mouse polyclonal antibody BSA-(19)M for mevalonic acid; assay: Enzyme immunoassay of mevalonic acid, solid phase antigen method, mouse polyclonal antibody BSA-(19)M; conditions: BSA-(19)M diluted 2 × 10^3; coated KLH-(31) 0.01 μg/ml; second antibody and blocking (O)
Experimental: as §1, §2, §3, §4

[5] = molecular target: mouse monoclonal antibody MHM-9H (IgG2b, k; hybridoma FERM BP-4524) for mevalonic acid; assay: Cross-reaction of mouse monoclonal antibody with analogues of mevalonic acid (enzyme immunoassay, solid phase first antibody); conditions: for IC50: antibody MHM-9H coated 7 μg/ml, peroxidase-labeled antigen (18), overnight at 4° C., absorbance 450 nm; for cross-reactivity: antibody MHM-9H, relative to mevalonic acid = 100
Experimental: A solution of antibody (prepared in example 10 as hereinafter defined) was placed with 100 μl portions in a polystyrene 96 wells micro plate (prepared by NUNC Co.). The micro plate was allowed to stand for 1.5 hours at room temperature to be fixed. After the removal of an aqueous layer, 50 mM PB (400 μl) containing 0.5% BSA was added to block the inside of a wall of wells for 1 hour at room temperature.
After the removal of an aqueous layer, 50 mM PB (100 μl) containing mevalonic acid analogues of various concentrations was added. A solution of labeled antigen (prepared in example 10 as hereinafter defined) was added thereto with 100 μl portions and then the mixture was allowed to stand overnight at 4° C. After the removal of an aqueous layer, the dishes were washed twice with 50 mM PB (300 μl) containing 0.05% Tween 20. The substrate solution (prepared in example 9 as hereinafter, 250 μl) was added thereto and then the mixture was reacted for 15 minutes at room temperature. After the reaction was stopped by the addition of 1N sulfuric acid (50 μl), and the absorbance was measured at 450 nm.
A conjugate (18) of mevalonic acid derivative and a specer (prepared) in example 1(b). 175 nmol) was added to PBS (175 μl) containing a horse-radish peroxidase (prepared by Toyobo, 350 μg) and then the mixture was reacted for 2 hours at room temperature and then overnight at 4° C. The reaction mixture was dialyzed by a mixture of 1,4-dioxane and PBS (1:1) and then by PBS. An obtained enzyme-labeled antigen was diluted with 50 mM PB containing 0.1% BSA to become 1.25 ng/100 μl (as peroxidase protein).
Monoclonal antibody of the present invention, MHM-9H (prepared in example 5), was prepared by 50 mM PB to become 7 μg/ml.

[6] = molecular target: mouse polyclonal antibody KLH-(45)M for mevalonic acid; assay: Enzyme immunoassay of mevalonic acid, solid phase antigen method, mouse polyclonal antibody KLH-(45)M; conditions: KLH-(45)M diluted 2 × 10^3; coated BSA-(12) 0.1 μg/ml; second antibody and blocking (B)
Experimental: as §1, §2, §3, §4

[7] = molecular target: mouse polyclonal antibody KLH-(18)M for mevalonic acid; assay: Enzyme immunoassay of mevalonic acid, solid phase antigen method, mouse polyclonal antibody KLH-(18)M; conditions: KLH-(18)M diluted 2 × 10^3; coated BSA-(31) 0.01 μg/ml; second antibody and blocking (B)
Experimental: as §1, §2, §3, §4

[8] = molecular target: mouse polyclonal antibody KLH-(39)M for mevalonic acid; assay: Enzyme immunoassay of mevalonic acid, solid phase antigen method, mouse polyclonal antibody KLH-(39)M; conditions: KLH-(39)M diluted 3 × 10^4; coated BSA-(12) 0.01 μg/ml; second antibody and blocking (B)
Experimental: as §1, §2, §3, §4

[9] = molecular target: mouse polyclonal antibody KLH-(12)M for mevalonic acid; assay: Enzyme immunoassay of mevalonic acid, solid phase antigen method, mouse polyclonal antibody KLH-(12)M; conditions: KLH-(12)M diluted 10^4; coated BSA-(31) 0.01 μg/ml; second antibody and blocking (B)
Experimental: as §1, §2, §3, §4

[10] = relative to mevalonic acid = 100

| Compound | IC50 [1] | IC50 [2] | IC50 [3] | cross-reactivity [3, 10] | IC50 [4] | IC50 [5] | cross-reactivity [5] | IC50 [6] | IC50 [7] | IC50 [8] | IC50 [9] | cross-reactivity ([3]; relative to mevalonic acid = 100, listed as glutaric acid) |
| --- | --- | --- | --- | --- | --- | --- | --- | --- | --- | --- | --- | --- |
| C[C@@](O)(CCO)CC(=O)O [Mevalonic acid] | 0.7 μg/test | 6.0 μg/test | 0.065 μg/test | 100% | 3.6 μg/test | 0.0025 μg/test | 100% | 4.0 μg/test | 0.3 μg/test | 0.1 μg/test | 0.5 μg/test | – |
| CC(O)(CC(=O)O)CC(=O)O [3-Hydroxy-3-methylglutaric acid] | – | – | 500 μg/test | 0.013% | – | > 250 μg/test | < 0.001% | – | – | – | – | – |
| O=C(O)CCCC(=O)O [Glutaric acid] | – | – | > 6500 μg/test | < 0.001% | – | > 250 μg/test | < 0.001% | – | – | – | – | less than 0.001% |
| CC(CC(=O)O)CC(=O)O [3-Methylglutaric acid] | – | – | 1000 μg/test | 0.0065% | – | > 250 μg/test | < 0.001% | – | – | – | – | – |

— patent US5591648A, “Antibodies for mevalonic acid and methods for immunological determination of mevalonic acid by using them” (Ono Pharmaceutical Co., Ltd., priority 1993, dated 1997)
